This passage reports carcinogen call results from PubChem BioAssay AID1259411 (Chemical Carcinogenesis Research Information System (CCRIS), 2018).

Activity calls are given as the source filed them. How the calls were made is not given here.

This data set relates to rodent carcinogenicity bioassays, tumor incidence. Kind of data set: CCRIS carcinogenicity studies. A digest of the protocol: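 NCI-built, expert-reviewed records of carcinogenicity and related test outcomes (mutagenicity, tumor promotion/inhibition) compiled from published and report sources, historical span 1985-2011, not updated.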

On to `S=C1NCCN1`, for which the carcinogen call is “active; positive” (Species: MOUSE, Strain/Sex: B6AKF1/MALE,FEMALE, Route: GAVAGE/ORAL, Dose: 215 MG/KG IN GELATIN FROM DAY 7-28 OF LIFE THEN 646 PPM IN DIET, Tumor Site: Type of Lesion: LIVER: HEPATOMA, LYMPHATIC SYSTEM: LYMPHOMA); “active; positive” (Species: MOUSE, Strain/Sex: B6C3F1/FEMALE, Route: ORAL, Dose: 0, 100, 330, 1000 PPM IN FEED FOR 24 MO, ADMINISTRATION BEGUN AT 8 WK OF AGE TO ANIMALS EXPOSED PERINATALLY BY ORAL, Dose: 0, 100, 330, 1000 PPM IN FEED FOR 24 MO, ADMINISTRATION BEGUN AT 8 WK OF AGE TO ANIMALS EXPOSED PERINATALLY BY ORAL, Tumor Site: Type of Lesion: LIVER: HEPATOCELLULAR ADENOMA, HEPATOCELLULAR CARCINOMA, PITUITARY GLAND, PARS DISTALIS: ADENOMA, THYROID GLAND: FOLLICU, Tumor Site: Type of Lesion: LIVER: HEPATOCELLULAR ADENOMA, HEPATOCELLULAR CARCINOMA, PITUITARY GLAND, PARS DISTALIS: ADENOMA, THYROID GLAND: FOLLICU); “active; positive” (Species: MOUSE, Strain/Sex: B6C3F1/FEMALE, Route: ORAL, Dose: 0, 330, 1000 PPM IN FEED FOR 24 MO (STUDY DURATION: 2 YR), Dose: 0, 330, 1000 PPM IN FEED FOR 24 MO (STUDY DURATION: 2 YR), Tumor Site: Type of Lesion: LIVER: HEPATOCELLULAR ADENOMA, HEPATOCELLULAR CARCINOMA, PITUITARY GLAND, PARS DISTALIS: ADENOMA, THYROID GLAND: FOLLICU, Tumor Site: Type of Lesion: LIVER: HEPATOCELLULAR ADENOMA, HEPATOCELLULAR CARCINOMA, PITUITARY GLAND, PARS DISTALIS: ADENOMA, THYROID GLAND: FOLLICU); “active; positive” (Species: MOUSE, Strain/Sex: B6C3F1/MALE,FEMALE, Route: GAVAGE/ORAL, Dose: 215 MG/KG IN GELATIN FROM DAY 7-28 OF LIFE THEN 646 PPM IN DIET, Tumor Site: Type of Lesion: LIVER: HEPATOMA, LYMPHATIC SYSTEM: LYMPHOMA); “active; positive” (Species: MOUSE, Strain/Sex: B6C3F1/MALE, Route: ORAL, Dose: 0, 100, 330, 1000 PPM IN FEED FOR 24 MO, ADMINISTRATION BEGUN AT 8 WK OF AGE TO ANIMALS EXPOSED PERINATALLY BY ORAL, Dose: 0, 100, 330, 1000 PPM IN FEED FOR 24 MO, ADMINISTRATION BEGUN AT 8 WK OF AGE TO ANIMALS EXPOSED PERINATALLY BY ORAL, Tumor Site: Type of Lesion: LIVER: HEPATOCELLULAR CARCINOMA, HEPATOCELLULAR ADENOMA OR CARCINOMA, THYROID GLAND: FOLLICULAR CELL ADENOMA, FOLLICULAR); “active; positive” (Species: MOUSE, Strain/Sex: B6C3F1/MALE, Route: ORAL, Dose: 0, 330, 1000 PPM IN FEED FOR 24 MO (STUDY DURATION: 2 YR), Dose: 0, 330, 1000 PPM IN FEED FOR 24 MO (STUDY DURATION: 2 YR), Tumor Site: Type of Lesion: LIVER: HEPATOCELLULAR CARCINOMA, PITUITARY GLAND, PARS DISTALIS: ADENOMA, THYROID GLAND: FOLLICULAR CELL ADENOMA, Tumor Site: Type of Lesion: LIVER: HEPATOCELLULAR CARCINOMA, PITUITARY GLAND, PARS DISTALIS: ADENOMA, THYROID GLAND: FOLLICULAR CELL ADENOMA). Also, the carcinogen call runs as follows: (Species: RAT, Strain/Sex: F344/FEMALE, Route: ORAL, Dose: 0, 25, 83, 250 PPM IN FEED FOR 24 MO, ADMINISTRATION BEGUN AT 8 WK OF AGE TO ANIMALS EXPOSED PERINATALLY BY ORAL DOS, Dose: 0, 25, 83, 250 PPM IN FEED FOR 24 MO, ADMINISTRATION BEGUN AT 8 WK OF AGE TO ANIMALS EXPOSED PERINATALLY BY ORAL DOS, Tumor Site: Type of Lesion: THYROID GLAND: FOLLICULAR CELL ADENOMA, FOLLICULAR CELL CARCINOMA) “active; positive”; (Species: RAT, Strain/Sex: F344/FEMALE, Route: ORAL, Dose: 0, 83, 250 PPM IN FEED FOR 24 MO (STUDY DURATION: 2 YR), Dose: 0, 83, 250 PPM IN FEED FOR 24 MO (STUDY DURATION: 2 YR), Tumor Site: Type of Lesion: THYROID GLAND: FOLLICULAR CELL ADENOMA, FOLLICULAR CELL CARCINOMA) “active; positive”; (Species: RAT, Strain/Sex: F344/MALE, Route: ORAL, Dose: 0, 25, 83, 250 PPM IN FEED FOR 24 MO, ADMINISTRATION BEGUN AT 8 WK OF AGE TO ANIMALS EXPOSED PERINATALLY BY DOSES TO, Dose: 0, 25, 83, 250 PPM IN FEED FOR 24 MO, ADMINISTRATION BEGUN AT 8 WK OF AGE TO ANIMALS EXPOSED PERINATALLY BY DOSES TO, Tumor Site: Type of Lesion: THYROID GLAND: FOLLICULAR CELL ADENOMA, FOLLICULAR CELL CARCINOMA) “active; positive”; (Species: RAT, Strain/Sex: F344/MALE, Route: ORAL, Dose: 0, 83, 250 PPM IN FEED FOR 24 MO (STUDY DURATION: 2 YR), Dose: 0, 83, 250 PPM IN FEED FOR 24 MO (STUDY DURATION: 2 YR), Tumor Site: Type of Lesion: THYROID GLAND: FOLLICULAR CELL ADENOMA, FOLLICULAR CELL CARCINOMA) “active; positive”; (Species: RAT, Strain/Sex: STRAIN-CD/MALE,FEMALE, Route: ORAL, Dose: 175, 350 PPM IN DIET FOR 78 WK, Tumor Site: Type of Lesion: THYROID GLAND: FOLLICULAR CARCINOMA) “active; positive”.
Consider `O[C@H]1[C@@H]2O[C@@H]2C=C[C@@H]1O`, for which the carcinogen call is, setting by setting: (Species: MOUSE, Strain/Sex: SWISS/FEMALE, Route: INTRAPERITONEAL, Dose: 0, 2.7, 13.7 UMOL ADMINISTERED AS 3 UNEQUAL DOSES (1/7, 2/7, AND 4/7 OF THE TOTAL DOSE) OVER A 2-WK PERIOD (STUDY DURATI, Dose: 0, 2.7, 13.7 UMOL ADMINISTERED AS 3 UNEQUAL DOSES (1/7, 2/7, AND 4/7 OF THE TOTAL DOSE) OVER A 2-WK PERIOD (STUDY DURATI) “inactive; negative”; (Species: MOUSE, Strain/Sex: SWISS/MALE, Route: INTRAPERITONEAL, Dose: 0, 2.7, 13.7 UMOL ADMINISTERED AS 3 UNEQUAL DOSES (1/7, 2/7, AND 4/7 OF THE TOTAL DOSE) OVER A 2-WK PERIOD (STUDY DURATI, Dose: 0, 2.7, 13.7 UMOL ADMINISTERED AS 3 UNEQUAL DOSES (1/7, 2/7, AND 4/7 OF THE TOTAL DOSE) OVER A 2-WK PERIOD (STUDY DURATI) “inactive; negative”.
Consider `CN(CC(=O)O)N=O`, for which the carcinogen call (Species: MOUSE, Route: INTRAPERITONEAL, Tumor Site: Type of Lesion: LIVER) was “active; positive”; the carcinogen call (Species: MOUSE, Route: ORAL, Tumor Site: Type of Lesion: NASAL CAVITY) was “active; positive”; the carcinogen call (Species: RAT, Route: ORAL, Tumor Site: Type of Lesion: ESOPHAGUS) is “active; positive”.
With `O=CC(=O)C[C@H](O)[C@H](O)CO`, the carcinogen call (Species: MOUSE, Strain/Sex: CD-1/FEMALE, Route: DERMAL, Dose: 0, 20 UMOL/0.1 ML DMSO 2/WK FOR 5 WK FOLLOWED 1 WK LATER BY 0.1 ML ACETONE 2/WK FOR 47 WK (STUDY DURATION: 52 WK)) was “inactive; negative”.
Turning to `CN(C)c1ccc(C(c2ccccc2)c2ccc(N(C)C)cc2)cc1`, the carcinogen call by setting is: (Species: MOUSE, Strain/Sex: B6C3F1/FEMALE, Route: ORAL (DIET), Dose: 0, 91, 204, 408 PPM IN DIET FOR 2 YRS, Dose: 0, 91, 204, 408 PPM IN DIET FOR 2 YRS, Tumor Site: Type of Lesion: LIVER: HEPATOCELLULAR ADENOMA OR CARCINOMA) “active; positive; incidence of tumors was statistically significant”; (Species: RAT, Strain/Sex: F344/N/FEMALE, Route: DIET, Dose: 0, 91, 272, 543 PPM IN DIET FOR 2 YRS, Dose: 0, 91, 272, 543 PPM IN DIET FOR 2 YRS, Tumor Site: Type of Lesion: LIVER: HEPATOCELLULAR ADENOMA, THYROID: FOLLICULAR CELL ADENOMA OR CARCINOMA) “equivocal; none of the tumor incidences reached statistical significance; for th”; (Species: RAT, Strain/Sex: F344/N/MALE, Route: ORAL (DIET), Dose: 0, 91, 272, 543 PPM IN DIET FOR 2 YRS, Dose: 0, 91, 272, 543 PPM IN DIET FOR 2 YRS, Tumor Site: Type of Lesion: TESTIS: INTERSTITIAL CELL ADENOMA, THYROID: FOLLICULAR CELL ADENOMA OR CARCINOMA) “equivocal; thyroid tumors did not reach statistical significance”.
